Patent publication US20260256794A1, “Oral Dynamine Formulations and Methods Therefor” (Ortho-Nutra, LLC, priority 2023, published 2026)

Legend:
Assay type in all cases: in vivo, human
[1] = system: subjects; test: Stroop-Accuracy
Protocol: (§1) The inventors have discovered various compositions and methods of improving various indices of neurological and neuroenergetic functions by administering 100 mg (once daily) dosages of DYNAMINE™ (dosage between 1.0 and 1.4 mg/kg) as described in the following:
(§2) All neuroenergetic tests as listed below were performed and data were collected after 0 and 4 days of assigned supplements (with acute effects also measured at day 4 over 180 minutes):
Stroop Color Matching Test (Total Score, Accuracy %, Average Score): Day 0: Two blocks of three tests were completed. Each block of three tests was separated by 10 minutes. The median of each block was taken and then those two scores were averaged. This value was used in all statistical analysis. Day 4: Three tests were completed at four time points: after 0, 60, 120, and 180 minutes of taking dose #4. The median of the three tests at each time point was used in all statistical analysis.
The Stroop Color and Word Test (SCWT, or Stroop test) is a neuropsychological test extensively used to assess the ability to inhibit cognitive interference that occurs when the processing of a specific stimulus feature impedes the simultaneous processing of a second stimulus attribute, well-known as the Stroop effect (see e.g., Front Psychol. 2017; 8:557). Here, subjects were required to read three different tables as fast as possible. Two of them represent the “congruous condition” in which participants are required to read names of colors (‘color-words’) printed in black ink (W) and name different color patches (C). However, in the third table, the color-word (CW) condition, color-words are printed in an inconsistent color ink (e.g., the word “red” is printed in green ink). In this incongruent condition, participants are required to name the color of the ink instead of reading the word. In other words, the participants are required to perform a less automated task (i.e., naming ink color) while inhibiting the interference arising from a more automated task (i.e., reading the word). This difficulty in inhibiting the more automated process is called the Stroop effect. The Stroop test is predominantly used to measure the ability to inhibit cognitive interference. However, some sources also report its application to measure other cognitive functions such as attention, processing speed, cognitive flexibility, and working memory.
Stroop-Accuracy: The results for this test were based on an accuracy score comparing performance between Day 0 and Day 4, with Day 4 including tests over a duration of 180 minutes. Results were collected as noted above and Table 43 provides exemplary results for Day 0 versus Day 4 ratings, whereas Table 44 provides exemplary acute results measured at Day 4 over a duration of 180 minutes.

[2] = system: subjects; test: VAS-Drive; set-up: VAS-Drive rating, Mean / VAS-Drive changes from baseline, Mean Difference ± SE: scale not given here; VAS-Drive area under the curve, Mean Difference ± SE / VAS-Drive area under the curve, Mean: unit not given here
Protocol: as §1, §2
(§3) All VAS Measurement (Energy, Sustained Energy, Mental Stamina, Ability to Focus, Ability to Concentrate, Motivation to Accomplish Difficult Tasks, Drive, Vigor, Level of Positive Outlook, Mood, Feelings of Well-Being, Tolerate Stress); Day 0: Two tests were completed. The average of both scores was computed and this value was used in all statistical analysis. Day 4 (0 minutes after ingesting dose #4): Two tests were completed. The average of both scores was computed and this value was used in all statistical analysis. Day 4 (60, 120, and 180 minutes after ingesting dose #4): One test was completed at each time point.
(§4) Neuroenergic parameters are inherently subjective, nevertheless significant in human behavior and well-being. To allow for a standardization among different subjects, the following experiments were performed using a visual analog scale using anchor statements (lowest possible/highest possible) in which subjects were asked to rate their subjective experience with respect to the specific neuroenergic parameters tested.
VAS-Drive: In this subjective test, subjects were asked to rate their personal level of energy on a VAS scale using the prompt of “My drive right now is . . . ” (with rating lowest possible to highest possible)”. Results were collected as noted above and Table 22 provides exemplary results for Day 0 versus Day 4 ratings, whereas Table 23 provides exemplary acute results measured at Day 4 over a duration of 180 minutes.

[3] = system: subjects; test: VAS-Ability to concentrate; set-up: VAS-Ability to concentrate rating, Mean / VAS-Ability to concentrate changes from baseline, Mean Difference ± SE / VAS-Ability to concentrate area under the curve, Mean Difference ± SE / VAS-Ability to concentrate area under the curve, Mean: scale not given here
Protocol: as §1, §2, §3, §4
VAS-Ability to concentrate: In this subjective test, subjects were asked to rate their personal level of energy on a VAS scale using the prompt of “My ability to concentrate right now is . . . ” (with rating lowest possible to highest possible)”. Results were collected as noted above and Table 16 provides exemplary results for Day 0 versus Day 4 ratings, whereas Table 17 provides exemplary acute results measured at Day 4 over a duration of 180 minutes.

[4] = system: subjects; test: VAS-Positivity; set-up: VAS-Positivity rating, Mean: scale not given here
Protocol: as §1, §2, §3, §4
VAS-Positivity: In this subjective test, subjects were asked to rate their personal level of energy on a VAS scale using the prompt of “My level of positive outlook right now is . . . ” (with rating lowest possible to highest possible)”. Results were collected as noted above and Table 28 provides exemplary results for Day 0 versus Day 4 ratings, whereas Table 29 provides exemplary acute results measured at Day 4 over a duration of 180 minutes.

[5] = 100 mg once daily, Day 4, 0 min after dose #4
[6] = 100 mg once daily, Day 4, 60 min after dose #4
[7] = 100 mg once daily, Day 4, 120 min after dose #4
[8] = 100 mg once daily, Day 4, 180 min after dose #4
[9] = 100 mg once daily, Day 4, 0-180 min
[10] = 100 mg once daily, Day 4, 0-180 min, vs Group A (placebo)
[11] = 100 mg once daily, Day 4, 60 min-0 min, vs Group A (placebo)
[12] = 100 mg once daily, Day 4, 120 min-0 min, vs Group A (placebo)
[13] = 100 mg once daily, Day 4, 180 min-0 min, vs Group A (placebo)

## COc1nc2c(c(=O)n1C)n(C)c(=O)n2C [methylliberine, 2-methoxy-1,7,9-trimethylpurine-6,8-dione]
[1]; [5]
  Stroop accuracy, Mean: 99.2%
[1]; [6]
  Stroop accuracy, Mean: 99.1%
[1]; [7]
  Stroop accuracy, Mean: 99.0%
[1]; [8]
  Stroop accuracy, Mean: 98.9%
[1]; Day 0 (before supplementation)
  Stroop accuracy, Mean: 99.2%
[2]; [9]
  VAS-Drive area under the curve, Mean: 1110
[2]; [10]
  VAS-Drive area under the curve, Mean Difference ± SE: 20.4 ± 37.8
  VAS-Drive area under the curve, effect size d: 0.06
[2]; [5]
  VAS-Drive rating, Mean: 5.9
[2]; [11]
  VAS-Drive changes from baseline, Mean Difference ± SE: −0.06 ± 0.27
  VAS-Drive changes from baseline, effect size d: −0.07
[2]; [6]
  VAS-Drive rating, Mean: 6.1
[2]; [12]
  VAS-Drive changes from baseline, Mean Difference ± SE: −0.16 ± 0.28
  VAS-Drive changes from baseline, effect size d: −0.15
[2]; [7]
  VAS-Drive rating, Mean: 6.2
[2]; [13]
  VAS-Drive changes from baseline, Mean Difference ± SE: 0.33 ± 0.35
  VAS-Drive changes from baseline, effect size d: 0.26
[2]; [8]
  VAS-Drive rating, Mean: 6.4
[2]; Day 0 (before supplementation)
  VAS-Drive rating, Mean: 5.8
[3]; [9]
  VAS-Ability to concentrate area under the curve, Mean: 1162
[3]; [10]
  VAS-Ability to concentrate area under the curve, Mean Difference ± SE: 48.1 ± 38.7
  VAS-Ability to concentrate area under the curve, effect size d: 0.16
[3]; [5]
  VAS-Ability to concentrate rating, Mean: 5.9
[3]; [11]
  VAS-Ability to concentrate changes from baseline, Mean Difference ± SE: 0.26 ± 0.26
  VAS-Ability to concentrate changes from baseline, effect size d: 0.28
[3]; [6]
  VAS-Ability to concentrate rating, Mean: 6.5
[3]; [12]
  VAS-Ability to concentrate changes from baseline, Mean Difference ± SE: 0.15 ± 0.27
  VAS-Ability to concentrate changes from baseline, effect size d: 0.14
[3]; [7]
  VAS-Ability to concentrate rating, Mean: 6.5
[3]; [13]
  VAS-Ability to concentrate changes from baseline, Mean Difference ± SE: 0.70 ± 0.23
  VAS-Ability to concentrate changes from baseline, effect size d: 0.68
[3]; [8]
  VAS-Ability to concentrate rating, Mean: 6.8
[3]; Day 0 (before supplementation)
  VAS-Ability to concentrate rating, Mean: 5.9
[4]; [9]
  VAS-Positivity area under the curve, Mean: 1235
[4]; [10]
  VAS-Positivity area under the curve, Mean Difference ± SE: 15.0 ± 43.0
  VAS-Positivity area under the curve, effect size d: 0.05
[4]; [5]
  VAS-Positivity rating, Mean: 6.4
[4]; [11]
  VAS-Positivity changes from baseline, Mean Difference ± SE: 0.07 ± 0.19
  VAS-Positivity changes from baseline, effect size d: 0.08
[4]; [6]
  VAS-Positivity rating, Mean: 6.8
[4]; [12]
  VAS-Positivity changes from baseline, Mean Difference ± SE: −0.05 ± 0.25
  VAS-Positivity changes from baseline, effect size d: 0.05
[4]; [7]
  VAS-Positivity rating, Mean: 7.0
[4]; [13]
  VAS-Positivity changes from baseline, Mean Difference ± SE: 0.46 ± 0.27
  VAS-Positivity changes from baseline, effect size d: 0.43
[4]; [8]
  VAS-Positivity rating, Mean: 7.0
[4]; Day 0 (before supplementation)
  VAS-Positivity rating, Mean: 6.6
